In KR20170031305A, “방사성 요오드 표지 아자이드 추적체, 이의 제조방법 및 이를 유효성분으로 포함하는 방사성 요오드 표지 또는 의료 진단용 조성물” (한국원자력연구원, priority 2015, dated 2017):

Experiments:
[1] = Stability in normal mouse serum at 37 °C, radio-TLC (Experimental Example 2); format: in vitro ADME
[2] = Biodistribution in ICR mice after intravenous injection, gamma counter (Experimental Example 3); format: in vivo; settings: ICR male mice, i.v., 1 μCi/100 μL per mouse

SMILES: [N-]=[N+]=NCCOCCOCCOCCNC(=O)c1ccc([125I])cc1 [실시예 1, 125I이 표지된 N-(2-(2-(2-(2-아지도에톡시)에톡시)에톡시)에틸)-4-아이오도벤즈아마이드]
- decrease of radiochemical purity in mouse serum ([1]; after 5 h): 거의 감소하지 않고
- remaining at 5 h ([1]; after 5 h, read-out: radiochemical purity in mouse serum): ≥ 95%
- remaining at 24 h ([1]; after 24 h, read-out: radiochemical purity in mouse serum): ≥ 90%
- time to absorption and accumulation in liver and kidney [2]: ≤ 15 min
- tissue uptake at 1 h ([2]; liver and kidney, iv, 1 uCi/animal, within 1 h, read-out: concentration (liver and kidney)): ≤ 20 %ID/g
- tissue uptake at 2 h ([2]; liver and kidney, iv, 1 uCi/animal, within 2 h, read-out: concentration (liver and kidney)): ≤ 10 %ID/g
- accumulation in liver and kidney ([2]; within 15 min): 높은 농도로 집적
- excretion from the body ([2]; within 2 h): ≥ 90%
